The values that follow come from ChEMBL document CHEMBL4382198, “Discovery of Risdiplam, a Selective Survival of Motor Neuron-2 ( SMN2) Gene Splicing Modifier for the Treatment of Spinal Muscular Atrophy (SMA)” (J Med Chem, 2018).

The test system of series [1] is Mus musculus. In words: In-vivo stabilization of SMN2 mRNA in SMA adult C/C allele mouse model assessed as increase in SMN protein levels in brain at 1 mg/kg, po dosed once daily for 10 days relative to control. It counts as functional.
Series [2] concerns Mus musculus. In words: In-vivo stabilization of SMN2 mRNA in SMA adult C/C allele mouse model assessed as increase in SMN protein levels in quadriceps at 3 mg/kg, po dosed once daily for 10 days relative to control. It is filed as functional.
Series [3] relates to Mus musculus. In words: In-vivo stabilization of SMN2 mRNA in SMA adult C/C allele mouse model assessed as increase in SMN protein levels in quadriceps at 10 mg/kg, po dosed once daily for 10 days relative to control. It is filed as functional.
In series [4] the test system is Mus musculus. In words: In-vivo stabilization of SMN2 mRNA in SMA neonatal delta7 mouse model assessed as increase in SMN protein levels in quadriceps at 0.1 mg/kg, ip dosed once daily starting from postnatal day 3 to postnatal day 9 relative to control. It counts as functional.
Series [5] in a line: Stabilization of human MADD mRNA splicing expressed in human SMA-derived fibroblasts at 121 to 605 nM by RT-qPCR analysis. It counts as ADME. The note with it: 0.605 µM. In general terms: Quantitative PCR measures a nucleic acid by following its amplification.
Series [6] in a line: Clearance in rat at 1.9 mg/kg, iv administered as single dose. It counts as ADME, organism-based. The note with it: in vivo.
Series [7] is described as follows: Chronic toxicity in retina of po dosed cynomolgus monkey assessed as excess vacuolation of inner nuclear layer after 39 weeks by histological analysis. It counts as organism-based, Macaca fascicularis. As to conditions: in vivo, 6552 h.
Series [8] has as its system Mus musculus. In words: In-vivo stabilization of SMN2 mRNA in SMA adult C/C allele mouse model assessed as increase in SMN protein levels in brain at 3 mg/kg, po dosed once daily for 10 days relative to control. It counts as functional.
Series [9] can be described thus: Clearance in cynomolgus monkey at 0.1 mg/kg, iv administered as single dose. It counts as ADME, organism-based, Macaca fascicularis. The note with it: in vivo.
Series [10] in a line: Effect on human FOXM1a mRNA splicing expressed in human SMA-derived fibroblasts by RT-qPCR analysis. It counts as ADME.
The subject of series [11] is Mus musculus. In words: In-vivo stabilization of SMN2 mRNA in SMA adult C/C allele mouse model assessed as increase in SMN protein levels in quadriceps at 1 mg/kg, po dosed once daily for 10 days relative to control. It counts as functional.
The test system of series [12] is Mus musculus. In words: In-vivo stabilization SMN2 mRNA in SMA delta7 mouse assessed as increase in mean survival day at 0.1 to 3 mg/kg, ip dosed daily starting from postnatal day 3 to postnatal day 23 followed by po dosing 0.3 to 10 mg/kg per day via gavage. It counts as functional, organism-based.
Series [13] has as its system Mus musculus. In words: In-vivo stabilization SMN2 mRNA in SMA delta7 ip dosed mouse assessed as increase in number of vGlut1 inputs in L3 to L5 spinal cord dosed daily starting from postnatal day 3 to postnatal day 14 by immunohistochemistry. It counts as functional, organism-based.
A short description of series [14]: Lipophilicity, log D of the compound at pH 7.4. It is filed as physicochemical. As to conditions: buffer.
The test system of series [15] is NIH3T3. In words: Phototoxicity in mouse 3T3 cells assessed as decrease in cell viability at 9 uM in presence of UV light by neutral red uptake assay. As to conditions: nih3t3, 9 µM. It counts as cell-based.
Series [16] is described as follows: Chronic toxicity in retina of po dosed cynomolgus monkey assessed as formation of scotopic depressed B-waves after 39 weeks by ERG analysis. As to conditions: in vivo, 6552 h. It counts as organism-based, Macaca fascicularis.

The source made the active and inactive calls. The calls are words filed in the database; no cut-off is given here.

Usually clearance stands for a measure of how efficiently the substance is removed, as volume per time. The EC50 is the concentration giving half of the maximal effect. Broadly, the logD is lipophilicity at a set pH, counting ionised and neutral species. Take `Cc1cn2nc(-c3cc(=O)n4cc(N5CCNC6(CC6)C5)ccc4n3)cc(C)c2n1`: the Activity is reported as 0% in [1]; 0% in series [2]; 49% in series [3]; 32% in series [4]; “Non-Toxic” in series [5]; “Toxic” in series [7]. The Activity was 17% in series [8]; 0% in series [11]; “Dose-dependent effect” in series [13]; “Non-Toxic” in series [15]; “Toxic” in [16]. Further, the clearance in [6] is 8.9 mL/min/kg; in [9] it was 5.7 mL/min/kg. Further, the EC50 in [10] was determined as 0.067 µM. Besides, the outcome in [12] was Active. The same compound registered a logD in series [14] of 2.5.
